In the NIST ThermoML archive (doi:10.1021/je034290l):

Experiments:
[1] = Liquid; for mass density: 101.33 kPa
[2] = refractive index (Na D-line) (dimensionless); settings: 101.33 kPa, Liquid, Standard Abbe refractometry

COC=O [methyl methanoate]
Settings	mass density [kg/m3]	refractive index	vapor or sublimation pressure [kPa]
[1], 299.15 K	964.78	–	–
[1], 301.23 K	–	–	88.7
[1], 301.42 K	–	–	89.37
[1], 301.78 K	–	–	90.67
[1], 302.15 K	–	–	91.98
[1], 302.53 K	–	–	93.31
[1], 302.89 K	–	–	94.64
[1], 303.41 K	–	–	95.98
[1], 303.77 K	–	–	97.36
[1], 304.13 K	–	–	98.69
[1], 304.44 K	–	–	99.97
[1], 304.79 K	–	–	101.32
[1], 304.83 K	–	–	101.39
[1], 305.21 K	–	–	102.89
[1], 305.51 K	–	–	104.06
[1], 305.85 K	–	–	105.38
[1], 306.2 K	–	–	106.72
[1], 306.54 K	–	–	108.06
[1], 306.84 K	–	–	109.39
[1], 307.2 K	–	–	110.77
[1], 307.54 K	–	–	112.13
[1], 307.85 K	–	–	113.44
[1], 308.13 K	–	–	114.75
[1], 308.47 K	–	–	116.1
[1], 308.81 K	–	–	117.47
[1], 309.15 K	–	–	118.77
[1], 309.43 K	–	–	120.12
[1], 309.72 K	–	–	121.43
[1], 310.03 K	–	–	122.74
[1], 310.33 K	–	–	124.08
[1], 310.64 K	–	–	125.47
[1], 310.92 K	–	–	126.77
[1], 311.19 K	–	–	128.14
[1], 311.48 K	–	–	129.44
[1], 311.78 K	–	–	130.75
[1], 312.06 K	–	–	132.09
[1], 312.37 K	–	–	133.48
[1], 312.67 K	–	–	134.81
[1], 312.9 K	–	–	136.09
[1], 313.17 K	–	–	137.42
[1], 313.45 K	–	–	138.75
[1], 313.74 K	–	–	139.83
[1], 314.01 K	–	–	141.42
[1], 314.3 K	–	–	142.78
[1], 314.37 K	–	–	143.32
[1], 314.6 K	–	–	144.13
[1], 314.63 K	–	–	144.65
[1], 314.88 K	–	–	145.45
[1], 314.93 K	–	–	145.65
[1], 315.12 K	–	–	146.74
[1], 315.18 K	–	–	147.03
[1], 315.52 K	–	–	148.79
[1], 315.56 K	–	–	149.41
[1], 315.77 K	–	–	150.23
[1], 316 K	–	–	151.48
[1], 316.06 K	–	–	152.08
[1], 316.23 K	–	–	152.97
[1], 316.47 K	–	–	154.04
[1], 316.57 K	–	–	154.75
[1], 316.71 K	–	–	155.22
[1], 316.95 K	–	–	156.54
[1], 317.05 K	–	–	157.42
[1], 317.17 K	–	–	157.73
[1], 317.36 K	–	–	158.92
[1], 317.4 K	–	–	159.14
[1], 317.64 K	–	–	160.45
[1], 317.88 K	–	–	161.72
[1], 318 K	–	–	162.65
[1], 318.34 K	–	–	164.18
[1], 318.51 K	–	–	165.32
[1], 318.68 K	–	–	166.44
[1], 319.07 K	–	–	168.3
[1], 319.37 K	–	–	170
[1], 319.45 K	–	–	170.76
[1], 319.67 K	–	–	171.98
[1], 319.93 K	–	–	173.32
[1], 320.22 K	–	–	174.76
[1], 320.34 K	–	–	175.82
[1], 320.65 K	–	–	177.38
[1], 320.78 K	–	–	178.57
[1], 321.04 K	–	–	180.01
[1], 321.34 K	–	–	181.7
[1], 321.46 K	–	–	182.37
[1], 321.72 K	–	–	184.02
[1], 321.94 K	–	–	185.46
[1], 322.2 K	–	–	186.83
[2], 299.15 K	–	1.3402	–

CCC(=O)OC [methyl propanoate]
Settings	mass density [kg/m3]	refractive index	vapor or sublimation pressure [kPa]
[1], 318.15 K	884.3	–	–
[1], 325.88 K	–	–	40.08
[1], 327.07 K	–	–	42.57
[1], 328.03 K	–	–	44.13
[1], 329 K	–	–	45.29
[1], 329.68 K	–	–	46.72
[1], 330.24 K	–	–	47.97
[1], 330.7 K	–	–	49.34
[1], 332 K	–	–	50.58
[1], 332.74 K	–	–	51.89
[1], 333.19 K	–	–	53.37
[1], 334.04 K	–	–	54.63
[1], 334.49 K	–	–	55.93
[1], 335.63 K	–	–	57.49
[1], 335.97 K	–	–	58.57
[1], 336.7 K	–	–	60.05
[1], 337.5 K	–	–	61.5
[1], 338.06 K	–	–	62.73
[1], 338.52 K	–	–	64.17
[1], 339.43 K	–	–	66.58
[1], 339.71 K	–	–	67.89
[1], 340.73 K	–	–	69.17
[1], 341.07 K	–	–	70.53
[1], 341.52 K	–	–	71.89
[1], 341.72 K	–	–	72.42
[1], 342.35 K	–	–	73.37
[1], 342.6 K	–	–	75.37
[1], 342.88 K	–	–	75.83
[1], 343.25 K	–	–	75.91
[1], 343.95 K	–	–	77.99
[1], 344.15 K	–	–	78.43
[1], 344.25 K	–	–	78.74
[1], 344.75 K	–	–	79.89
[1], 345.4 K	–	–	82.35
[1], 345.65 K	–	–	82.59
[1], 346.32 K	–	–	84.18
[1], 346.57 K	–	–	85.43
[1], 346.65 K	–	–	86.74
[1], 347.23 K	–	–	87.87
[1], 347.4 K	–	–	88.1
[1], 348.15 K	–	–	90.74
[1], 348.73 K	–	–	91.95
[1], 348.98 K	–	–	93.23
[1], 349.23 K	–	–	94.6
[1], 349.73 K	–	–	96.03
[1], 350.23 K	–	–	97.26
[1], 350.59 K	–	–	98.7
[1], 350.99 K	–	–	100
[1], 351.65 K	–	–	101.32
[1], 352.23 K	–	–	102.75
[1], 352.4 K	–	–	103.87
[1], 352.82 K	–	–	105.43
[1], 352.9 K	–	–	106.58
[1], 353.73 K	–	–	107.82
[1], 353.82 K	–	–	109.39
[1], 354.15 K	–	–	110.78
[1], 354.57 K	–	–	112.07
[1], 354.82 K	–	–	113.15
[1], 355.65 K	–	–	114.82
[1], 355.74 K	–	–	115.9
[1], 355.82 K	–	–	117.13
[1], 356.32 K	–	–	118.57
[1], 356.9 K	–	–	120.15
[1], 357.15 K	–	–	121.17
[1], 357.39 K	–	–	122.81
[1], 357.9 K	–	–	123.81
[1], 358.24 K	–	–	124.65
[1], 358.48 K	–	–	126.73
[1], 358.65 K	–	–	127.87
[1], 358.98 K	–	–	129.37
[1], 359.32 K	–	–	130.43
[1], 359.48 K	–	–	130.89
[1], 359.98 K	–	–	133.25
[1], 360.4 K	–	–	134.57
[1], 360.57 K	–	–	135.81
[1], 361.08 K	–	–	137.35
[1], 361.4 K	–	–	138.56
[1], 361.73 K	–	–	140
[1], 361.9 K	–	–	141.21
[1], 362.44 K	–	–	142.57
[1], 362.57 K	–	–	144.11
[1], 363.07 K	–	–	145.35
[1], 363.4 K	–	–	146.48
[1], 363.73 K	–	–	148.09
[1], 363.91 K	–	–	149.39
[1], 364.4 K	–	–	151.04
[1], 364.57 K	–	–	152.48
[1], 364.9 K	–	–	153.26
[1], 364.99 K	–	–	154.82
[1], 365.38 K	–	–	156.06
[1], 365.48 K	–	–	156.17
[1], 365.82 K	–	–	158.49
[1], 365.9 K	–	–	159.73
[1], 366.15 K	–	–	160.57
[1], 366.57 K	–	–	162.57
[1], 366.65 K	–	–	163.38
[1], 367.15 K	–	–	165.17
[1], 367.4 K	–	–	166.74
[1], 367.82 K	–	–	167.89
[2], 318.15 K	–	1.3641	–
